Measured values as given in US9694016B2 (Novartis AG, priority 2013, dated 2017).
Where two headings read alike, the source gives them in different places.

Target: b-Raf (V600E) (Homo sapiens (Human), UniProt P15056, V600E)
Conditions: read-out: b-Raf IC-50
[1] = Table 2, AlphaScreen, 3 hours reaction
[2] = AlphaScreen, 60 min pre-incubation, 3 hours reaction
[3] = AlphaScreen, 60 min pre-incubation, reaction 3 hours at room temperature

Chain of b-Raf (V600E) (P15056 whole entry V600E): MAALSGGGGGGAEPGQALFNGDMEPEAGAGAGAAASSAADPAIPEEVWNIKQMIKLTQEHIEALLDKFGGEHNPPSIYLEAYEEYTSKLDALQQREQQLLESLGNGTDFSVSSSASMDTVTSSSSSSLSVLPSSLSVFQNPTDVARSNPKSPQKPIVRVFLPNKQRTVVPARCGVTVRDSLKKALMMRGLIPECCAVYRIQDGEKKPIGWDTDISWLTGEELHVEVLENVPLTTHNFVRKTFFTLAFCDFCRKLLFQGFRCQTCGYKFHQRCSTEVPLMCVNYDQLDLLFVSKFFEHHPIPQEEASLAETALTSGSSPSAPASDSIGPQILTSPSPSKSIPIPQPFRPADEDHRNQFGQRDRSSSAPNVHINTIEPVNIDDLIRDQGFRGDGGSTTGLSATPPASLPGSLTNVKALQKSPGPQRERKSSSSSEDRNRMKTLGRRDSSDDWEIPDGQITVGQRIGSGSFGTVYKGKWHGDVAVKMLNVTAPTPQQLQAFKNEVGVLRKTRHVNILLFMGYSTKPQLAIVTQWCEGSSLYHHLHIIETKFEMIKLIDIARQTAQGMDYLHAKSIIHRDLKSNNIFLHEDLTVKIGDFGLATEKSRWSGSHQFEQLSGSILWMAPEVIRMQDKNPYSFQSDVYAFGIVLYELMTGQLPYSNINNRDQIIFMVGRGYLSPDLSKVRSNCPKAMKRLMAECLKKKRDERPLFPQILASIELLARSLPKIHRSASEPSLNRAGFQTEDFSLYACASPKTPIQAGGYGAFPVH

| Structure (SMILES) | IC50 [1] | IC50 [2] | IC50 [3] | further results |
| --- | --- | --- | --- | --- |
| Cn1cc(-c2cc(NC(=O)c3ccnc(C(F)(F)F)c3)ccc2Cl)cc(N2CCOCC2)c1=O [Example 413, N-(4-chloro-3-(1-methyl-5-morpholino-6-oxo-1,6-dihydropyridin-3-yl)phenyl)-2-(trifluoromethyl)isonicotinamide] | 0.4 nM |  |  |  |
| CCC(F)(F)c1cc(C(=O)Nc2cnc(C)c(-c3cc(N4CCOCC4)c(=O)n(C)n3)c2)ccn1 [Example 679, 2-(1,1-difluoropropyl)-N-(6-methyl-5-(1-methyl-5-morpholino-6-oxo-1,6-dihydropyridazin-3-yl)pyridin-3-yl)isonicotinamide] |  | 8.1 nM |  |  |
| Cc1ccc(C(=O)Nc2cccc(C(F)(F)F)c2)cc1-c1cc(N2CCOCC2)nc(N2CC(O)C2)n1 [Example 766, 3-(2-(3-hydroxyazetidin-1-yl)-6-morpholinopyrimidin-4-yl)-4-methyl-N-(3-(trifluoromethyl)phenyl)benzamide] |  | 1.8 nM |  |  |
| Cc1ncc(NC(=O)c2cnnc(C(F)(F)F)c2)cc1-c1cc(NCCO)nc(N2CCOCC2)c1F [Example 1004, N-(3′-fluoro-6′-((2-hydroxyethyl)amino)-2-methyl-2′-morpholino-[3,4′-bipyridin]-5-yl)-6-(trifluoromethyl)pyridazine-4-carboxamide] |  |  | 83.6 nM |  |
| CCOc1nnc(-c2cc(NC(=O)c3ccnc(C4CC4)c3)ccc2C)cc1N1CCOCC1 [Example 563, 2-cyclopropyl-N-(3-(6-ethoxy-5-morpholinopyridazin-3-yl)-4-methylphenyl)isonicotinamide] |  | 0.6 nM |  |  |
| Cn1cc(-c2cc(NC(=O)c3cccc(C(F)(F)F)c3)ccc2F)cc(N2CCOCC2)c1=O [Example 410] | 2 nM |  |  |  |
| Cc1ccc(NC(=O)c2cccc(C(C)(C)S(C)(=O)=O)c2)cc1-c1cc(N2CCOCC2)c(=O)n(C)c1 [Example 351, N-(4-methyl-3-(1-methyl-5-morpholino-6-oxo-1,6-dihydropyridin-3-yl)-phenyl)-3-(2-(methylsulfonyl)propan-2-yl)benzamide] | 19.5 nM |  |  |  |
| CCOc1ncc(-c2cc(NC(=O)c3cc(N4CCN(CC)CC4)cc(C(F)(F)F)c3)cnc2C)cc1N1CCOCC1 [Example 257, N-(6′-ethoxy-2-methyl-5′-morpholino-[3,3′-bipyridin]-5-yl)-3-(4-ethylpiperazin-1-yl)-5-(trifluoromethyl)benzamide] | 10 nM |  |  |  |
| Cc1ccc(NC(=O)c2cnnc(C(F)(F)F)c2)cc1-c1cc(N2CCOCC2)nc(N2CC(O)C2)c1 [Example 1070, N-(3-(2-(3-hydroxyazetidin-1-yl)-6-morpholinopyridin-4-yl)-4-methylphenyl)-6-(trifluoromethyl)pyridazine-4-carboxamide] |  |  | 2.41 nM |  |
| CCOc1nnc(-c2cc(NC(=O)c3ccnc(C(F)(F)F)c3)cnc2C)cc1N1CCOCC1 [Example 616, N-(5-(6-ethoxy-5-morpholinopyridazin-3-yl)-6-methylpyridin-3-yl)-2-(trifluoromethyl)isonicotinamide] |  | 1.6 nM |  |  |
| Cc1ccc(NC(=O)c2ccnc(C3(C#N)CC3)c2)cc1-c1cc(N2CCOCC2)c(=O)n(C)c1 [Example 357, 2-(1-cyanocyclopropyl)-N-(4-methyl-3-(1-methyl-5-morpholino-6-oxo-1,6-dihydropyridin-3-yl)phenyl)isonicotinamide] | 3.4 nM |  |  |  |
| Cc1ncc(NC(=O)c2cccc(C(F)(F)F)c2)cc1-c1cnc(OC2CN(C)C2)c(N2CCOCC2)c1 [Example 321, N-(2-methyl-6′-((1-methylazetidin-3-yl)oxy)-5′-morpholino-[3,3′-bipyridin]-5-yl)-3-(trifluoromethyl)benzamide] | 24.8 nM |  |  |  |
| CCOc1ncc(-c2cc(NC(=O)c3cnnc(C(F)(F)F)c3)cnc2C)cc1N1C2CCC1COC2 [Example 282, N-(5′-(3-oxa-8-azabicyclo[3.2.1]octan-8-yl)-6′-ethoxy-2-methyl-[3,3′-bipyridin]-5-yl)-6-(trifluoromethyl)pyridazine-4-carboxamide] |  |  |  | IC50: 53 nM |
| CCOc1nnc(-c2cc(NC(=O)c3ccc(CNC)c(C(F)(F)F)c3)ccc2C)cc1N1CCOCC1 [Example 574, N-(3-(6-ethoxy-5-morpholinopyridazin-3-yl)-4-methylphenyl)-4-((methylamino)methyl)-3-(trifluoromethyl)benzamide] |  |  |  | IC50: 2.2 nM |
| CCn1c(N2CCOCC2)cc(-c2cc(NC(=O)c3ccnc(C(C)C)c3)ccc2C)cc1=O [Example 522, N-(3-(1-ethyl-6-morpholino-2-oxo-1,2-dihydropyridin-4-yl)-4-methylphenyl)-2-isopropylisonicotinamide] |  | 2.5 nM |  |  |
| Cn1cc(-c2cc(NC(=O)c3cccc(C(F)(F)F)c3)ccc2Cl)cc(N2CCOCC2)c1=O [Example 409, N-(4-chloro-3-(1-methyl-5-morpholino-6-oxo-1,6-dihydropyridin-3-yl)phenyl)-3-(trifluoromethyl)benzamide] | 1.7 nM |  |  |  |
| CCn1cc(C(=O)Nc2cnc(C)c(-c3cc(N4CCOCC4)c(=O)n(C)c3)c2)c(C)n1 [Example 373, N-(1′,2-dimethyl-5′-morpholino-6′-oxo-1′,6′-dihydro-[3,3′-bipyridin]-5-yl)-1-ethyl-3-methyl-1H-pyrazole-4-carboxamide] | 1100 nM |  |  |  |

| Structure (SMILES) | IC50 [1] | IC50 [2] | IC50 [3] | further results |
| --- | --- | --- | --- | --- |
| CCNc1nc(-c2cc(NC(=O)c3ccnc(C(F)F)c3)cnc2C)cc(N2CCOCC2)n1 [Example 721, 2-(difluoromethyl)-N-(5-(2-(ethylamino)-6-morpholinopyrimidin-4-yl)-6-methylpyridin-3-yl)isonicotinamide] |  | 3.3 nM |  |  |
| CCC(F)(F)c1cc(C(=O)Nc2cnc(C)c(-c3cc(N4CCOCC4)c(S(C)(=O)=O)nn3)c2)ccn1 [Example 925, 2-(1,1-difluoropropyl)-N-(6-methyl-5-(6-(methylsulfonyl)-5-morpholinopyridazin-3-yl)pyridin-3-yl)isonicotinamide] |  |  | 12.2 nM |  |
| Cc1ccc(NC(=O)c2cccc(CC#N)c2)cc1-c1cc(N2CCOCC2)c(=O)n(C)n1 [Example 652, 3-(cyanomethyl)-N-(4-methyl-3-(1-methyl-5-morpholino-6-oxo-1,6-dihydropyridazin-3-yl)phenyl)benzamide] |  | 6.7 nM |  |  |
| COc1cccc(NC(=O)c2ccc(C)c(-c3cc(N4CCOCC4)c(=O)n(C)c3)c2)c1 [Example 440, N-(3-methoxyphenyl)-4-methyl-3-(1-methyl-5-morpholino-6-oxo-1,6-dihydropyridin-3-yl)benzamide] |  | 93.9 nM |  |  |
| Cc1ccc(NC(=O)c2cc(C(C)C)on2)cc1-c1cc(N2CCOCC2)c(=O)n(C)c1 [Example 371, 5-isopropyl-N-(4-methyl-3-(1-methyl-5-morpholino-6-oxo-1,6-dihydropyridin-3-yl)phenyl)isoxazole-3-carboxamide] | 0.8 nM |  |  |  |
| Cc1ncc(NC(=O)c2ccnc(C(C)(C)O)c2)cc1-c1cc(NCCO)nc(N2CCOCC2)c1 [Example 1046, N-(2′-((2-hydroxyethyl)amino)-2-methyl-6′-morpholino-[3,4′-bipyridin]-5-yl)-2-(2-hydroxypropan-2-yl)isonicotinamide] |  |  | 68.4 nM |  |
| Cc1ncc(NC(=O)c2ccnc(C(C)(C)F)c2)cc1-c1cnc(OC(C)C)c(N2CCOCC2)c1 [Example 953, 2-(2-fluoropropan-2-yl)-N-(6′-isopropoxy-2-methyl-5′-morpholino-[3,3′-bipyridin]-5-yl)isonicotinamide] |  |  | 3.33 nM |  |
| Cc1ncc(NC(=O)c2ccnc(C(C)(C)C#N)c2)cc1-c1cc(N2CCOCC2)nc(N2CC(C)(O)C2)c1 [Example 1108, 2-(2-cyanopropan-2-yl)-N-(2′-(3-hydroxy-3-methylazetidin-1-yl)-2-methyl-6′-morpholino-[3,4′-bipyridin]-5-yl)isonicotinamide] |  |  | 20.4 nM |  |
| Cc1ncc(NC(=O)c2ccnc(C(C)(C)C#N)c2)cc1-c1cnc(OC2CC3(COC3)C2)c(N2CCOCC2)c1 [Example 967, N-(6′-(2-oxaspiro[3.3]heptan-6-yloxy)-2-methyl-5′-morpholino-[3,3′-bipyridin]-5-yl)-2-(2-cyanopropan-2-yl)isonicotinamide] |  |  | 5.74 nM |  |
| Cc1ccc(NC(=O)c2ccnc(C3(C#N)CC3)c2)cc1-c1cc(N2CCOCC2)nc(N2CC(O)C2)c1 [Example 1071, 2-(1-cyanocyclopropyl)-N-(3-(2-(3-hydroxyazetidin-1-yl)-6-morpholinopyridin-4-yl)-4-methylphenyl)isonicotinamide] |  |  | 2.08 nM |  |
| COCCN(C)c1cc(C(=O)Nc2ccc(C)c(-c3cc(N4CCOCC4)c(=O)n(C)c3)c2)ccn1 [Example 455, 2-((2-methoxyethyl)(methyl)amino)-N-(4-methyl-3-(1-methyl-5-morpholino-6-oxo-1,6-dihydropyridin-3-yl)phenyl)isonicotinamide] |  | 2.8 nM |  |  |
| Cc1ccc(NC(=O)c2ccnc(C(C)(C)C#N)c2)cc1-c1cc(N2CCOCC2)c(=O)n(CC2(C)COC2)c1 [Example 338, 2-(2-cyanopropan-2-yl)-N-(4-methyl-3-(1-((3-methyloxetan-3-yl)methyl)-5-morpholino-6-oxo-1,6-dihydropyridin-3-yl)phenyl)isonicotinamide] | 9000 nM |  |  |  |
| Cc1ncc(NC(=O)c2cccc(C(F)(F)F)c2)cc1-c1cc(N2CCOCC2)nc(NC2CNC2)n1 [Example 787, N-(5-(2-(azetidin-3-ylamino)-6-morpholinopyrimidin-4-yl)-6-methylpyridin-3-yl)-3-(trifluoromethyl)benzamide] |  | 5.5 nM |  |  |
| Cc1ccc(NC(=O)c2ccnc(C(C)(C)C#N)c2)cc1-c1nc(N2CCOCC2)c2sccc2n1 [Example 862, 2-(2-cyanopropan-2-yl)-N-(4-methyl-3-(4-morpholinothieno[3,2-d]pyrimidin-2-yl)phenyl)isonicotinamide] |  |  | 0.9 nM |  |
| COCCOc1nnc(-c2cc(NC(=O)c3ccnc(C(C)(C)C#N)c3)ccc2C)cc1N1CCOCC1 [Example 601, 2-(2-cyanopropan-2-yl)-N-(3-(6-(2-methoxyethoxy)-5-morpholinopyridazin-3-yl)-4-methylphenyl)isonicotinamide] |  | 1.1 nM |  |  |
| Cc1ccc(NC(=O)c2cccc(C(F)F)c2)cc1-c1cc(N2CCOCC2)nc(N2CC(O)C2)c1 [Example 1077, 3-(difluoromethyl)-N-(3-(2-(3-hydroxyazetidin-1-yl)-6-morpholinopyridin-4-yl)-4-methylphenyl)benzamide] |  |  | 0.85 nM |  |
